The values below come from paper PMC12041767 (Journal of immunology (Baltimore, Md. : 1950), 2025).

Like-named read-outs stand apart in the source and are kept apart here.

For assay [1], the target named is HLA-E*01:03 (Homo sapiens, UniProt P13747). The class given is binding. The settings on record: tested at least two times, median, Figure 1.
Assay [2] addresses T1, NKG2A/CD94 (Homo sapiens, UniProt P26715+Q13241). The class given is binding.
Assay [3] relates to TCR 6. The experiment in a line: HLA-E*01:03 tetramer (TM) staining of TCR 6 transduced Jurkat cells. The settings on record: for Interaction of thermal exchanged HLA-E TM/peptide complex with TCR 6, in words: thermal exchanged HLA-E*01:03 TM staining on Jurkat TCR 6 cells, tested once, Figure 2C-E.
The test system of assay [4] is TCR KK50.4. The assay is described as follows: HLA-E*01:03 tetramer (TM) staining of TCR KK50.4 transduced Jurkat cells. The settings on record: for Interaction of thermal exchanged HLA-E TM/peptide complex with TCR KK50.4, in words: thermal exchanged HLA-E*01:03 TM staining on Jurkat TCR KK50.4 cells, tested once, Figure 2C.
In assay [5] the target is T1, NKG2A/CD94. The settings on record: cited from earlier work.
Assay [6] deals with primary NKG2C+ NK cells. The note with it: stimulation with HLA-E/peptide presenting cells, compared to other position 8 variants from clinical CMV isolates; cited from earlier work.
Assay [7] deals with TCR KK50.4. It counts as cell-based. The settings on record: 100 μM peptide, median, n=3 with two technical replicates, Figure 3B, C.
Setting [8] is: S/P relative to positive control […] or […].
Where [9] appears, read: conventional HLA-E TMs folded with wildtype peptide, Figure 2B.
The mark [10] stands for this setting: UV exchange 1 hr at 4°C, ELISA absorbance 450 nm.

T1 sequence (P26715 whole entry): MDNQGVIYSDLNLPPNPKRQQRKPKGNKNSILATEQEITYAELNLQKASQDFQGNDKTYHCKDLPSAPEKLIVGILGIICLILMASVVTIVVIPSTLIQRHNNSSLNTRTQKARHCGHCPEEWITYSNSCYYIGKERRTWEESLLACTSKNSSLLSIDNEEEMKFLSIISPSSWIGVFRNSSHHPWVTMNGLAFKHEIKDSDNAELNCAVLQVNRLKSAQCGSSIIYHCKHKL
T1 sequence (Q13241 whole entry): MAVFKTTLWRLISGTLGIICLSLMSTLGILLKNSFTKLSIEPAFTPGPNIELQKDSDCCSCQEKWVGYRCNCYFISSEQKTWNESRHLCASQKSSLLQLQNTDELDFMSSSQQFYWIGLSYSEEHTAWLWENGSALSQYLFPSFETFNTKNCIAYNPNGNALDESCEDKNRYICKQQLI

Take VLAPRDLLL [VLAPRTLLL Asp 6]: the “Peptide binding affinity for HLA-E*01:03 (signal to positive, S/P, ratio), in words” value in assay [1] (setting [8]) is recorded as “could not bind”.

For the sequence VLAPRPLLL [VLAPRTLLL Pro 6], the “Peptide binding affinity for HLA-E*01:03 (signal to positive, S/P, ratio), in words” value in assay [1] (setting [8]) was “strong binders (key: The S/P thresholds to define binders or strong binders are 0.08 and 0.18, respectively; The S/P thresholds to define binders or strong binders are 0.08 and 0.18, respectively)”.

Take VLAPRRLLL [VLAPRTLLL Arg 6]: the “Peptide binding affinity for HLA-E*01:03 (signal to positive, S/P, ratio), in words” value in assay [1] (setting [8]) was “could not bind”.

In the case of VLAPRTDLL [VLAPRTLLL Asp 7], in assay [1] (setting [8]), the “Peptide binding affinity for HLA-E*01:03 (signal to positive, S/P, ratio), in words” value is “could not bind”.

Take VLAPRTLGL [VLAPRTLLL Gly 8]: in assay [1] (setting [8]), the “Peptide binding affinity for HLA-E*01:03 (signal to positive, S/P, ratio), in words” value is recorded as “could not bind”.

Regarding VLAPRTLLA [VLAPRTLLL Ala 9], the “Peptide binding affinity for HLA-E*01:03 (signal to positive, S/P, ratio), in words” value in assay [1] (setting [8]) is “could not bind”.

Take VLAPRTLLL [reference compound]: the “Peptide binding affinity for HLA-E*01:03 (signal to positive, S/P, ratio), in words” value in assay [1] (setting [8]) was “high affinity”. Also, in assay [2], the “Interaction of conventional HLA-E TM with NKG2A/CD94, in words” value is on record as “can interact”. In addition, in assay [3] (setting [9]), the “Interaction of conventional HLA-E TM with TCR 6, in words” value is “can interact”. Moreover, the “Interaction of conventional HLA-E TM with TCR KK50.4, in words” value in assay [4] (setting [9]) was “could only interact with the HLA-E/[…] complex”.

As to VLAPRTPLL [VLAPRTLLL Pro 7], the “Peptide binding affinity for HLA-E*01:03 (signal to positive, S/P, ratio), in words” value in assay [1] (setting [8]) is “strong binders (key: The S/P thresholds to define binders or strong binders are 0.08 and 0.18, respectively; The S/P thresholds to define binders or strong binders are 0.08 and 0.18, respectively)”.

Consider VLAPRTRLL [VLAPRTLLL Arg 7], for which, in assay [1] (setting [8]), the “Peptide binding affinity for HLA-E*01:03 (signal to positive, S/P, ratio), in words” value was “could not bind”.

For VMAARTLIL, the “Interaction of thermal exchanged HLA-E TM/peptide complex with TCR KK50.4, in words” value in assay [4] is on record as “interacted”.

As for VMAPRALIL, the “Interaction of thermal exchanged HLA-E TM/peptide complex with TCR 6, in words” value in assay [3] was “interacted”.

Take VMAPRPLIL: the “Peptide binding affinity for HLA-E*01:03 (signal to positive, S/P, ratio), in words” value in assay [1] (setting [10]) was “strong binders (The S/P thresholds to define binders or strong binders are 0.08 and 0.18, respectively)”. Further, the “Interaction of thermal exchanged HLA-E TM/peptide complex with TCR 6, in words” value in assay [3] was “interacted”.

Regarding VMAPRTLFL, the “Level of NKG2A/CD94 signaling among VL9-peptides” value in assay [5] is given as “highest level of NKG2A/CD94 signaling”. Further, the “CD107a expression and cytokine secretion of primary NKG2C+ NK cells” value in assay [6] was “highest level of CD107a expression and cytokine secretion”.

Take VMAPRTLIF: in assay [7], the “TCR KK50.4 triple reporter activation, in words” value is given as “still induced TCR KK50.4 activation”.

As for VMAPRTLIW, the “Interaction of thermal exchanged HLA-E TM/peptide complex with TCR 6, in words” value in assay [3] is on record as “not TCR 6”. Moreover, the “Interaction of thermal exchanged HLA-E TM/peptide complex with TCR KK50.4, in words” value in assay [4] is “recognized by TCR KK50.4”.

VMAPRTPIL: the “Peptide binding affinity for HLA-E*01:03 (signal to positive, S/P, ratio), in words” value in assay [1] (setting [10]) is “strong binders (The S/P thresholds to define binders or strong binders are 0.08 and 0.18, respectively)”.
